From PubChem BioAssay (NCI)
Values joined by “and” are separate entries in the source; they are usually repeats but may differ in a detail not shown here. Equal entries are not always repeated.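 The compound was tested at five concentrations on cells cultured in 96-well plates, with a 48-hour exposure period. Here, GI50 denotes the concentration required for 50% inhibition of growth. TGI denotes the concentration required for complete inhibition of growth.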

Key:
Assay in all cases: NCI-60 cell line screen, 48 h
DU-145 prostate = system: DU-145 prostate
SF-295 CNS = system: SF-295 CNS
PC-3 prostate = system: PC-3 prostate
RXF 393 renal = system: RXF 393 renal
SNB-75 CNS = system: SNB-75 CNS
K-562 leukemia = system: K-562 leukemia
COLO 205 colon = system: COLO 205 colon
SN12C renal = system: SN12C renal
SK-MEL-28 melanoma = system: SK-MEL-28 melanoma
HT29 colon = system: HT29 colon
T-47D breast = system: T-47D breast
SF-539 CNS = system: SF-539 CNS
SK-MEL-5 melanoma = system: SK-MEL-5 melanoma

Structure (SMILES) | TGI (DU-145 prostate) [µM] | TGI (SF-295 CNS) [µM] | TGI (PC-3 prostate) [µM] | TGI (RXF 393 renal) | TGI (SNB-75 CNS) | TGI (K-562 leukemia) [µM] | TGI (COLO 205 colon) | TGI (SN12C renal) | TGI (SK-MEL-28 melanoma) [µM] | TGI (HT29 colon) | TGI (T-47D breast) [µM] | TGI (SF-539 CNS) | TGI (SK-MEL-5 melanoma) | GI50 (SNB-75 CNS) | GI50 (SK-MEL-5 melanoma) | GI50 (SF-539 CNS) [µM] | GI50 (DU-145 prostate) [µM] | GI50 (PC-3 prostate) [µM] | GI50 (T-47D breast) [µM]
CC(=O)NC(CCC(=O)C=[N+]=N)C(=O)O (stereo not drawn) | > 100 | > 100 | > 100 | > 100 µM | > 100 µM | > 100 | > 100 µM | > 100 µM | > 100 | > 100 µM | > 100 | > 100 µM | > 100 µM |  |  |  |  |  | 
CC1CCC2(C(=O)O)CCC3(C)C(=CCC4C5(C)CCC(O)C(C)(C)C5CCC43C)C2C1C (stereo not drawn) | 21.6 | 10.2 | 29.3 | 16.4 µM and 38.3 µM | 16.5 µM and 30.4 µM | 15.6 | 26.3 µM and 28.3 µM | 18.9 µM and 36.1 µM |  | 22.9 µM and 37.7 µM | 29.3 | 22.5 µM and 35.6 µM | 50.8 µM and 23.8 µM | 1.52 µM and 13.3 µM | 26.4 µM and 11.3 µM |  |  |  | 
CC1CC[C@@]2(OC1)OC1CC3C4CCC5C[C@@H](OC6OC(CO)C(OC7OC(CO)C(O)C(OC8OC(CO)C(O)C(OC9OC(CO)C(O)C(O)C9O)C8O)C7OC7OC(CO)C(O)C(O)C7O)C(O)C6O)[C@H](O)C[C@]5(C)C4CC[C@]3(C)C1[C@@H]2C (stereo partly drawn) | > 80.5 | > 80.5 | > 80.5 | > 80.5 µM | > 80.5 µM | > 80.5 | > 80.5 µM | > 80.5 µM | > 80.5 | > 80.5 µM | > 80.5 | > 80.5 µM | > 80.5 µM |  |  |  |  |  | 
CNC(=O)SCC(N)C(=O)O (stereo not drawn) |  | > 100 |  | > 100 µM | > 100 µM | > 100 | > 100 µM | > 100 µM | > 100 | > 100 µM |  | > 100 µM | > 100 µM |  |  |  |  |  | 
Cc1[nH]nc(N)c1C(N)=O |  | > 100 |  | 56.1 µM | > 100 µM | > 100 | > 100 µM | > 100 µM | > 100 | > 100 µM |  | > 100 µM | > 100 µM |  |  |  |  |  | 
CC(=O)OC/C=C\Cn1nc(Br)c(=O)[nH]c1=O | 31.9 |  | 26 | 27.1 µM | 29.6 µM | 26.5 | 29.6 µM | 55.2 µM | 32 |  | 37.1 | 24.7 µM | 30.9 µM |  |  |  |  |  | 
COc1cc(OC)c(/C=C\c2cc(/C=C/c3c(OC)cc(OC)cc3OC)c3ccccc3[n+]2C)c(OC)c1 | 20.9 | 10.9 | 11.5 | 10.9 µM | 14.2 µM |  | 6.1 µM | 9.8 µM | 10.9 | 5.93 µM | 7.11 | 5.93 µM | 2 µM |  |  |  |  |  | 
O=C(N/N=C/c1cc(Cl)cc(Cl)c1[O-])c1ccccc1O.O=C(N/N=C/c1cc(Cl)cc(Cl)c1[O-])c1ccccc1O.[Zn+2] |  | 5.21 |  | 11.6 µM | 16.4 µM | 33.4 |  |  | 14.8 | 13.7 µM |  | 5.75 µM | 2.94 µM |  |  | 0.852 |  |  | 
OC1CCOc2ccccc21 (stereo not drawn) |  |  |  | > 100 µM |  | > 100 | > 100 µM | > 100 µM | > 100 | > 100 µM |  | > 100 µM | > 100 µM |  |  |  |  |  | 
CCC(=O)c1ccc2[nH]c3c(C)c4c(=O)cc(C)[nH]c4c(C)c3c2c1 | > 100 | > 100 | > 100 | > 100 µM | > 100 µM |  | > 100 µM |  | > 100 | > 100 µM | > 100 | > 100 µM | > 100 µM |  |  |  |  |  | 
NC(=O)CCC(N=C(N)c1csc(C2OC(CO)C(O)C2O)n1)C(=O)O (stereo not drawn) |  | > 100 |  | > 100 µM | > 100 µM | > 100 | > 100 µM | > 100 µM | > 100 | > 100 µM |  | > 100 µM | > 100 µM |  |  |  |  |  | 
COC1C=COC2(C)Oc3c(C)c(O)c4c(O)c(c(/C=N/N5CCN(N)CC5)c(O)c4c3C2=O)NC(=O)C(C)=CC=CC(C)C(O)C(C)C(O)C(C)C(OC(C)=O)C1C (stereo not drawn) |  | > 100 |  | > 100 µM | > 100 µM | > 100 | > 100 µM | > 100 µM | > 100 | > 100 µM |  | > 100 µM | > 100 µM |  |  |  |  |  | 
CCOC(=O)c1c(Cl)nc2ccccc2c1N=[N+]=[N-] |  | > 100 | 68.5 | > 100 µM |  | > 100 | 36.1 µM | 30.7 µM | > 100 | 34.2 µM | 45.7 | 37.7 µM | > 100 µM |  |  |  |  |  | 
CCCC(=O)NC1CCc2cc(OC)c(OC)c(OC)c2-c2ccc(OC)c(=O)cc21 (stereo not drawn) | 0.0114 |  | > 100 | 44.7 µM | > 100 µM | > 100 |  | > 100 µM | > 100 | 0.125 µM |  | 0.00199 µM |  |  |  |  |  |  | 
C1=C(c2ccccc2)Nc2nnnn2C1c1ccccc1 (stereo not drawn) | 72.5 | 88.5 | > 100 | 51.1 µM |  | > 100 | > 100 µM | > 100 µM |  | 41.5 µM | > 100 | 81 µM | > 100 µM |  |  |  |  |  | 
O=S(=O)(O)c1ccc(N=Nc2c(O)ccc3cc(Br)ccc23)cc1 | > 100 | > 100 | > 100 | > 100 µM | > 100 µM |  | > 100 µM | > 100 µM | > 100 | > 100 µM | > 100 |  | > 100 µM |  |  |  |  |  | 
S=C1CC(c2ccccc2)Sc2ccccc2N1 (stereo not drawn) | > 100 | > 100 | > 100 | 75.8 µM | > 100 µM | > 100 | > 100 µM | > 100 µM | > 100 | > 100 µM | > 100 |  | > 100 µM |  |  |  |  |  | 
[O-][n+]1ccccc1S | 46.8 | 9.51 | > 100 | 8.33 µM | > 100 µM |  | 1.7 µM | > 100 µM | > 100 | 2.32 µM | > 100 | > 100 µM | 30.9 µM |  |  |  | 3.48 | 3.61 | 6.27
C/C=C/C1=CC(=O)C(O)C1O (stereo not drawn) |  | 118 |  | 44 µM | 67.5 µM | 179 | 51.8 µM | 64 µM | 97.9 | 102 µM |  | 55.9 µM | 79.8 µM |  |  |  |  |  | 
CC(=O)NC(c1nc2cc(C)c(C)cc2[nH]1)c1nc2cc(C)c(C)cc2[nH]1 | 57.7 | 49.1 | 94.7 | 84.8 µM | 50.7 µM | > 100 | 43.4 µM | 77.4 µM | 53.4 | 78.1 µM | > 100 | 30.5 µM | 32 µM |  |  |  |  |  | 
